Common to all, as to assay type: in vivo
The test system of experiment [1] is Musca domestica Linnaeus adult houseflies. The experiment can be described thus: Needle inoculum (direct application) on adult flies. As for the experimental part: (§1) The Solution may be poured into a container having a spray nozzle or provided in an aerosol container. Alternatively, the Solution may be poured into an open container for direct contact. The Solution may be poured directly onto pupa or sprayed. Several experiments were performed on Musca domestica Linnaeus adult houseflies, pupa, and larva using varying dilutions, concentrations, and combinations of components, along with a dihydrogen monoxide control to compare the effectiveness and potency of each composition for quickly killing adult flies, pupa, and larva. […] During experimentation, a needle inoculum (syringe) having a modified composition for adult flies, a spray inoculum having the modified composition for adult flies, and a dihydrogen monoxide control for adult flies were conducted. References to “needle inoculum” refers to directly applying the modified composition to the adult flies.

For experiment [2], the system named is Musca domestica Linnaeus house fly. Kind of experiment: Fly killing, general statements (application not specified). The note with it: for independent house fly adulticidal properties of the individual component: individual formula component. The text has this: The concentrations, formulas, and composition noted herein have been evaluated and tested for optimal effect against adult houseflies and pupa. Altering the preferred concentrations would decrease the effectiveness of the inventive Solution, leading to longer a time period before the flies and/or pupa are killed. The Solution may be poured into a container having a spray nozzle or provided in an aerosol container. Alternatively, the Solution may be poured into an open container for direct contact. The Solution may be poured directly onto pupa or sprayed. Several experiments were performed on Musca domestica Linnaeus adult houseflies, pupa, and larva using varying dilutions, concentrations, and combinations of components, along with a dihydrogen monoxide control to compare the effectiveness and potency of each composition for quickly killing adult flies, pupa, and larva. […] These minimal moments of delay between contact and expiration prevents the fly from falling and immediately dying in an undesired location, for example, on a food surface. […] The user can either wait for the fly to die solely from the spray, or, alternatively, the user can implement using the spray as one of the first steps for disabling the fly before immediately killing the fly with either more application of the sprayable composition or with another aid, for example, a fly swatter.
The invention, when sprayed on fly pupa, prevents the pupa from hatching. The preferred type of fly and fly pupa that are effectively killed by this Solution are Musca domestica Linnaeus houseflies. Because the composition (or Solution) is nontoxic, nonabrasive, and ingestible for humans, the Solution can be sprayed or applied directly to a surface, including food. Various experiments were conducted to evaluate the efficacy of each component used in the Solution.

Experiment [3] concerns Musca domestica Linnaeus adult houseflies. Kind of experiment: Spray inoculum on adult flies. The note with it: 75° F. As for the experimental part:
as §1

[4] abbreviates: FIG. 30, 50% dilution, same temperature (75° F.).
Where [5] appears, read: FIG. 30, needle inoculum as printed, 0% dilution of 10 mg/mL, 75° F.
Setting [6] is: needle inoculum, 0% (no) dilution, 75° F., time in E2/E3.
The mark [7] stands for this setting: needle inoculum, 50% dilution with water, 75° F.
[8] abbreviates: needle inoculum, 50% dilution with water, 75° F., time in E5/E6.
Setting [9] is: needle inoculum, 75% dilution with water, 75° F.
The mark [10] stands for this setting: needle inoculum, 90% dilution with water, 75° F.
Setting [11] is: 50% dilution with water, time in E36/E37.
Setting [12] is: printed 50% dilution, in the figure of the 75% dilution experiment.
The mark [13] stands for this setting: needle inoculum, 75% dilution with water, 75° F., 30 minutes.
The mark [14] stands for this setting: needle inoculum, 90% dilution with water, 75° F., 30 minutes.
The mark [15] stands for this setting: 90% dilution with water, 30 minutes.
[16] abbreviates: needle inoculum, no (0%) dilution, 75° F.

Where only a bound is given, the exact number is not on record here.

Consider `CCCCC(CC)COC(=O)CC(C(=O)OCC(CC)CCCC)S(=O)(=O)[O-].[Na+]` (centres unmarked) [dioctyl sodium sulfosuccinate], for which the “deaths of adult flies” value in experiment [1] (setting [4]) is on record as 10 out of 10; in experiment [1] (FIG. 30, 90% dilution), 10 out of 10; in experiment [1] (setting [5]) it was 10 out of 10. Moreover, the “time within which the deaths occurred” value was no more than 46 s in experiment [1] (setting [4]); no more than 188 s in experiment [1] (FIG. 30, 90% dilution); no more than 36 s in experiment [1] (setting [5]). Moreover, the “time within which flies are immobilized and collapse” value in experiment [2] (flies) lay in the range of 30 to 60 s.

On to `CCCCC(CC)COC(=O)CC(C(=O)OCC(CC)CCCC)S(=O)(=O)[O-].[Na+]` (centres unmarked) [docusate, docusate sodium], for which the “deaths of adult flies” value in experiment [1] (setting [6]) was 10 out of 10; in experiment [1] (setting [8]), 10 out of 10; in experiment [1] (needle inoculum, 75% dilution with water, 75° F., time in E8/E9), 10 out of 10; in experiment [1] (needle inoculum, 90% dilution with water, 75° F., time in E11) it was 10 out of 10; in experiment [1] (needle inoculum, 95% dilution with water, 75° F., time in E13) it was 10 out of 10; in experiment [1] (needle inoculum, 99% dilution with water, 75° F., time in E15), 10 out of 10. Further, the “deaths of adult flies” value in experiment [3] (setting [11]) was 10 out of 10; in experiment [3] (90% dilution with water, time in E42/E43), 10 out of 10; in experiment [3] (95% dilution with water, time in E45) it was 10 out of 10; in experiment [3] (99% dilution with water, time in E47) it was 10 out of 10; in experiment [3] (no dilution, time in E33/E34) it was 10 out of 10; in experiment [3] (printed 50% dilution, in the figure of the 75% dilution experiment, time in E39/E40), 10 out of 10. The “time within which the deaths occurred” value in experiment [1] (needle inoculum, 0% dilution, 75° F.) is no more than 48 s; in experiment [1] (setting [7]) it was no more than 56 s; in experiment [1] (setting [9]), no more than 126 s; in experiment [1] (setting [10]), no more than 121 s; in experiment [3] (50% dilution with water) it was no more than 43 s; in experiment [3] (90% dilution with water) it was no more than 143 s. For the same compound, the results for the “time within which the deaths occurred” value in experiment [3] (no dilution) and in experiment [3] (setting [12]) were no more than 68 s and no more than 89 s, respectively. The “independent house fly adulticidal properties of the individual component” value in experiment [2] is listed as “exhibit varying house fly adulticidal properties”.

`CCO` [ethyl alcohol]: the “deaths of adult flies” value in experiment [1] (setting [6]) is 10 out of 10; in experiment [1] (setting [8]) it was 10 out of 10; in experiment [3] (setting [11]), 10 out of 10; in experiment [3] (no dilution, time in E33/E34) it was 10 out of 10. The “flight ability during the observation time” value in experiment [1] (setting [7]) is “incapable of flight”; in experiment [1] (setting [13]) it was “incapable of flight”; in experiment [1] (setting [14]), “incapable of flight”; in experiment [3] (75% dilution with water, 30 minutes), “incapable of flight”; in experiment [3] (setting [15]) it was “incapable of flight”; in experiment [3] (no dilution), “incapable of flight”. Further, the “deaths of adult flies within 30 minutes” value in experiment [1] (setting [9]) is on record as 1 out of 10; in experiment [1] (setting [10]), 0 out of 10; in experiment [3] (75% dilution with water), 4 out of 10; in experiment [3] (90% dilution with water), 1 out of 10.

Take `OCC(O)CO` [glycerin]: the “flight ability during the observation time” value is given as “incapable of flight” in experiment [1] (setting [7]); “incapable of flight” in experiment [1] (setting [13]); “incapable of flight” in experiment [1] (setting [14]); “incapable of flight” in experiment [1] (setting [16]); “incapable of flight” in experiment [3] (50% dilution, 30 minutes); “incapable of flight” in experiment [3] (setting [15]). For the same compound, the “flight ability during the observation time” value in experiment [3] (no dilution) is reported as “incapable of flight”; in experiment [3] (printed 50% dilution, in the figure of the 75% dilution experiment, 30 minutes) it was “incapable of flight”. The “deaths of adult flies within 30 minutes” value in experiment [1] (setting [7]) is recorded as 5 out of 10; in experiment [1] (setting [9]), 4 out of 10; in experiment [1] (setting [10]) it was 2 out of 10; in experiment [1] (setting [16]) it was 0 out of 10; in experiment [3] (50% dilution) it was 6 out of 10; in experiment [3] (90% dilution with water), 7 out of 10. The “deaths of adult flies within 30 minutes” value is on record as 0 out of 10 in experiment [3] (no dilution) and 6 out of 10 in experiment [3] (setting [12]). Moreover, the “independent house fly adulticidal properties of the individual component” value in experiment [2] is on record as “exhibit varying house fly adulticidal properties”.

Source of the values: patent US11058113B1, “Fly and pupa insecticide” (Fly's Water, LLC, priority 2018, dated 2021).
